# Measurements reported in US7160545B2, “HLA-A24 binding peptides of enhancer of zeste homolog 2” (Green Peptide Co., Ltd., priority 2005, dated 2007).
# Like-named read-outs stand apart in the source and are kept apart here. No end group written: not given here.
# Columns and labels:
# LNCaP-A24 cells [1] = test: 6-hr 51Cr-release cytotoxicity of EZH2 peptide-stimulated PBMCs; format: cell-based, human; details: LNCaP-A24 (HLA-A24^+) versus LNCaP (HLA-A24^−) and PHA-stimulated T cell blasts, PBMCs from 3 HLA-A24^+ patients
# Source text: To investigate HLA-A24-restricted cytotoxicity, the level of cytotoxicity against the LNCaP was compared with the level of cytotoxicity against its transfectant, LNCaP-A24, which is a subline that transfected with the HLA-A*2402 gene and express the gene stably (Yao A, Harada M, Matsueda S, Ishihara Y, Shomura H, Noguchi M, Matsuoka K, Hara I, Kamidono S, Itoh K, Identification of parathyroid hormone-related protein-derived peptides immunogenic in human histocompatibility leukocyte antigen-A24^+ prostate cancer patients, British Journal of Cancer, 91:287–296, 2004, this reference is incorporated herein by reference). All cell lines were maintained in RPMI-1640 medium (Gibco BRL, Grand Island, N.Y.) supplemented with 10% FCS.
# The PBMCs from 3 HLA-A24^+ prostate cancer patients were then stimulated in vitro with the indicated EZH2 peptide, and examined for their cytotoxicity against HLA-A24^− LNCaP cells, HLA-A24^+ LNCaP-A24, and HLA-A24^+ PHA-stimulated T cell blasts. Specifically, after in vitro stimulation with the EZH2 peptides, the peptide-stimulated PBMCs were additionally cultured with 100 U/ml IL-2 for approximately 10 days in 96 round-well plates in order to obtain a sufficient number of cells to carry out a cytotoxicity assay. Then, these cells were tested for cytotoxicity against LNCaP, LNCaP-A24, and PHA-stimulated T cell blasts by a 6-hr ^51Cr-release assay. Two thousand ^51Cr-labeled cells per well were cultured with effector cells in 96 round-well plates at the indicated effector/target ratios.
# LNCaP-A24 cells [2] = test: Inhibition of the cytotoxicity of EZH2 peptide-stimulated PBMCs by antibodies; format: cell-based, human; details: mAb 20 μg/ml; effector/target ratio 10/1; patients 17, 18, 21
# Description: We further tried to confirm which effector cells were responsible for the cytotoxicity. EZH2 peptide-stimulated PBMCs from patients 17, 18, and 21 were tested for their cytotoxicity against the LNCaP-A24 cells. The 6-hr cytotoxicity assay was performed in the presence of the indicated monoclonal antibody (mAb). The assay was done at an effector/target ratio of 10/1. Either anti-HLA class I (W6/32: mouse IgG2a), anti-HLA-DR (L243: mouse IgG2a), anti-CD4 (Nu-Th/i: mouse IgG1), anti-CD8 (Nu-Ts/c: mouse IgG2a), or anti-CD14 (H14: mouse IgG2a) mAb was added to the wells at a dose of 20 μg/ml at the start of the assay.
# [3] = tested on: PBMCs of HLA-A24^+ prostate cancer patients; test: IFN-γ production of peptide-stimulated PBMCs against peptide-pulsed C1R-A24 cells (peptide-specific CTL assay); format: cell-based, human; details: for Cancer patients in whom the peptide induced peptide-specific CTLs: HLA-A24^+ prostate cancer patients; for IFN-γ production: day 15, C1R-A24 cells pulsed with corresponding peptide, HIV peptide background subtracted, mean of 2 wells
# Description: The assay for the detection of peptide-specific CTLs in PBMCs was performed according to a previously reported method (21). In brief, PBMCs (1×10^5 cells/well) were incubated with 10 μg/ml of each peptide in a U-bottom-type 96-well microculture plate (Nunc, Roskilde, Denmark) at a volume of 200 μl of culture medium. The culture medium consisted of 45% RPMI-1640, 45% AIM-V medium (Gibco BRL, Grand Island, N.Y.), 10% FCS, 100 U/ml of interleukin (IL)-2, and 0.1 mM MEM nonessential amino acid solution (Gibco BRL, Grand Island, N.Y.). Half of the culture medium was removed and replaced with new medium containing a corresponding peptide (20 μg/ml) every 3 days. On the 15th day of culture, the cultured cells were separated into 4 wells, and two of which were used for EZH2 peptide-pulsed C1R-A24 cells, and the other two of which were used for the HIV peptide-pulsed C1R-A24 cells. C1R-A24 is an HLA-A*2402-expressing subline of C1R lymphoma (Oiso M, Eura M, Katsura F, Takiguchi M, Sobao Y, Masuyama K, Nakashima M, Itoh K, Ishikawa T. A newly identified MAGE-3-derived epitope recognized by HLA-A24-restricted cytotoxic T lymphocytes. Int. J. Cancer 81: 387–394, 1999, this reference is incorporated herein by reference). After an 18-hr incubation period, the supernatants were collected and the level of IFN-γ was determined by ELISA. The EZH2-170 peptide was included in this experiment as an EZH2 peptide that was less frequently recognized by the humoral immune system.
# [4] = tested on: IgG in the plasma of prostate cancer patients; test: ELISA for peptide-specific IgG in plasma of prostate cancer patients; format: binding, human; details: for Humoral response, Total (IgG-positive patients/patients tested): positive when OD more than 0.04; for IgG reactive to peptide, OD: 1:100-diluted plasma, cut-off OD 0.04, — = not positive
# Description: Peptide-specific IgG levels in the plasma were measured by ELISA using a previously reported method (20). In brief, peptide (20 μg/well)-immobilized plates were blocked with Block Ace (Yukijirushi, Tokyo, Japan) and washed with 0.05% Tween20-PBS, after which 100 μl/well of plasma sample diluted with 0.05% Tween20-Block Ace was added to the plates. After a 2-hr incubation at 37° C., the plates were washed and further incubated for 2 hr with a 1:1000-diluted rabbit anti-human IgG (γ-chain-specific) (DAKO, Glostrup, Denmark). The plates were washed, and then 100 μl of 1:100-diluted goat anti-rabbit IgG-conjugated horseradish peroxidase (EnVision; DAKO) was added to each well, and the plates were incubated at room temperature for 40 min. After the plates were washed once, 100 μl/well of tetramethyl benzidine substrate solution (KPL, Guildford, UK) was added, and the reaction was stopped by the addition of 1 M phosphoric acid. The values are shown as optical density (OD) units/ml. To confirm the specificity of IgG to the indicated EZH2 peptide, sample plasma was cultured with plates coated with either the corresponding EZH2 peptide or an irrelevant EZH2 peptide. Thereafter, the levels of EZH2 peptide-specific IgG in the resulting supernatant were determined by ELISA.
# As shown above, we investigated whether IgG reactive to each of the 11 EZH2-derived peptides could be detected in the plasma of 10 prostate cancer patients. These patients were not limited to the HLA-A24^+ subjects, because peptide-specific IgG was not restricted to MHC class I molecules, as reported previously (22). The mean+2 SD value (OD: 0.04), which was determined as the level of IgG reactive to the HIV peptide in plasma from HIV-negative healthy donors, was used as a cut-off value at a 1:100 diluted plasma in the ELISA.
# [5] = significant: p < 0.05 and >100 pg/ml of IFN-γ production
sequence,measurement,setting,value
KYVGIEREM [EZH2-735],Cytotoxicity of peptide-stimulated PBMCs / induction of HLA-A24-restricted prostate cancer-reactive CTLs,LNCaP-A24 cells [1],efficiently induce HLA-A24-restricted and prostate cancer-reactive CTLs
same,Cytotoxicity of peptide-stimulated PBMCs / induction of HLA-A24-restricted prostate cancer-reactive CTLs,LNCaP-A24 cells [1]; listed as EZH2 735–743,efficiently induced HLA-A24-restricted and prostate cancer-reactive CTLs
same,Cytotoxicity against LNCaP-A24 cells on addition of anti-class I or anti-CD8 mAb,LNCaP-A24 cells [2],significantly inhibited
"TYGPVFMCL [EBV, reference compound]","Reactivity of peptide-stimulated PBMCs, Total (patients with significant IFN-γ production/patients tested)",[3],5/10
TYYDNFCAI (EZH2 446-454) [EZH2-446],"Humoral response, Total (IgG-positive patients/patients tested)",[4]; 10 prostate cancer patients,0/10
RFYIQMCYEL (Flu virus-derived peptide) [reference compound],"Reactivity of peptide-stimulated PBMCs, Total (patients with significant IFN-γ production/patients tested)",[3],3/10
DYRYSQADAL (EZH2 725-734) [EZH2-725],"Humoral response, Total (IgG-positive patients/patients tested)",[4]; 10 prostate cancer patients,2/10
same,"IgG reactive to peptide, OD",[4]; prostate cancer patient #2,0.049 OD
same,"IgG reactive to peptide, OD",[4]; prostate cancer patient #8,0.056 OD
IFVELVNAL (EZH2 170-178) [EZH2-170],"Humoral response, Total (IgG-positive patients/patients tested)",[4]; 10 prostate cancer patients,1/10
same,"IgG reactive to peptide, OD",[4]; prostate cancer patient #8,0.043 OD
same,Cancer patients in whom the peptide induced peptide-specific CTLs,[3],1 of 10
same,IFN-γ production,[3]; patient #11,10 pg/mL
same,IFN-γ production,[3]; patient #12,15 pg/mL
same,IFN-γ production,[3]; patient #13,181 pg/mL
same,IFN-γ production,[3]; patient #14,35 pg/mL
same,IFN-γ production,[3]; patient #15,10 pg/mL
same,IFN-γ production,[3]; patient #16,30 pg/mL
same,IFN-γ production,[3]; patient #17,87 pg/mL
same,IFN-γ production,[3]; patient #18,0 pg/mL
same,IFN-γ production,[3]; patient #19,16 pg/mL
same,IFN-γ production,[3]; patient #20,82 pg/mL
same,"Reactivity of peptide-stimulated PBMCs, Total (patients with significant IFN-γ production/patients tested)",[3]; [5],1/10
KYMCSFLFNL (EZH2 660-669) [EZH2-660],"Humoral response, Total (IgG-positive patients/patients tested)",[4]; 10 prostate cancer patients,2/10
same,"IgG reactive to peptide, OD",[4]; prostate cancer patient #2,0.105 OD
same,"IgG reactive to peptide, OD",[4]; prostate cancer patient #10,0.058 OD
KYDCFLHPF [EZH2-291],Cytotoxicity of peptide-stimulated PBMCs / induction of HLA-A24-restricted prostate cancer-reactive CTLs,LNCaP-A24 cells [1],efficiently induce HLA-A24-restricted and prostate cancer-reactive CTLs
same,Cytotoxicity of peptide-stimulated PBMCs / induction of HLA-A24-restricted prostate cancer-reactive CTLs,LNCaP-A24 cells [1]; listed as EZH2 291–299,efficiently induced HLA-A24-restricted and prostate cancer-reactive CTLs
same,Cytotoxicity against LNCaP-A24 cells on addition of anti-class I or anti-CD8 mAb,LNCaP-A24 cells [2],significantly inhibited
KYKELTEQQL (EZH2 243-252) [EZH2-243],Patients in whose plasma IgG reactive to the peptide was detected,[4]; 10 prostate cancer patients,6 of 10 patients
same,"Humoral response, Total (IgG-positive patients/patients tested)",[4]; 10 prostate cancer patients,6/10
same,"IgG reactive to peptide, OD",[4]; prostate cancer patient #1,0.055 OD
same,"IgG reactive to peptide, OD",[4]; prostate cancer patient #2,0.080 OD
same,"IgG reactive to peptide, OD",[4]; prostate cancer patient #7,0.041 OD
same,"IgG reactive to peptide, OD",[4]; prostate cancer patient #8,0.150 OD
same,"IgG reactive to peptide, OD",[4]; prostate cancer patient #9,0.089 OD
same,"IgG reactive to peptide, OD",[4]; prostate cancer patient #10,0.067 OD
same,Share of prostate cancer patients with IgG reactive to the peptide detected in plasma,[4]; summary statement,almost half
same,Cancer patients in whom the peptide induced peptide-specific CTLs,[3],2 of 10
same,IFN-γ production,[3]; patient #11,124 pg/mL
same,IFN-γ production,[3]; patient #12,25 pg/mL
same,IFN-γ production,[3]; patient #13,0 pg/mL
same,IFN-γ production,[3]; patient #14,13 pg/mL
same,IFN-γ production,[3]; patient #15,27 pg/mL
same,IFN-γ production,[3]; patient #16,27 pg/mL
same,IFN-γ production,[3]; patient #17,44 pg/mL
same,IFN-γ production,[3]; patient #18,13 pg/mL
same,IFN-γ production,[3]; patient #19,71 pg/mL
same,IFN-γ production,[3]; patient #20,171 pg/mL
same,"Reactivity of peptide-stimulated PBMCs, Total (patients with significant IFN-γ production/patients tested)",[3]; [5],2/10
NFMVEDETVL (EZH2 119-128) [EZH2-119],"Humoral response, Total (IgG-positive patients/patients tested)",[4]; 10 prostate cancer patients,1/10
same,"IgG reactive to peptide, OD",[4]; prostate cancer patient #8,0.047 OD
DFPTQVIPL (EZH2 90-98) [EZH2-90],"Humoral response, Total (IgG-positive patients/patients tested)",[4]; 10 prostate cancer patients,0/10
